Target: T1, IRE1α (Homo sapiens, UniProt O75460)
T1 construct: gene ERN1; cytoplasmic portion, kinase and RNase domains, residues 547-977 of NP_001424, N-terminal His-tagged (Sf9)
Assay: TR-FRET (LanthaScreen) displacement of tracer […] from purified His-tagged IRE1α
Type: binding

T1 sequence (O75460 547-977): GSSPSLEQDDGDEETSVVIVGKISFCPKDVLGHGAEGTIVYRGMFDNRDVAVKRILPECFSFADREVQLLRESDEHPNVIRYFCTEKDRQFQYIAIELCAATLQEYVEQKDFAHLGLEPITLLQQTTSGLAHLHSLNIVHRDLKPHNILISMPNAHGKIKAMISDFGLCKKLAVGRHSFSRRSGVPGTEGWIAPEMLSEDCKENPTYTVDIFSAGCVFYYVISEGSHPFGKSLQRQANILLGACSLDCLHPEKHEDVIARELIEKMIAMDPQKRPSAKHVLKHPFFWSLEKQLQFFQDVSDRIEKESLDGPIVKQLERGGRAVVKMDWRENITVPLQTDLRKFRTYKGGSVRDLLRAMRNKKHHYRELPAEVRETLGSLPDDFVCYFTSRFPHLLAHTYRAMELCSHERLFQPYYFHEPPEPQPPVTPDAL

CC(C)(C)c1nc(-c2ccc(NC(=O)Nc3cccc(C(F)(F)F)c3)c3ccccc23)c2c(N)nccn12 [KIRA6]
Kd: 280 nM

From publication PMC8002512, “IRE1α Is a Therapeutic Target for Cystic Fibrosis Airway Inflammation” (International Journal of Molecular Sciences, 2021)
